Assay results reported in patent US20070134157A1, “Biological assay” (priority 2004, published 2007).

Assays:
[1] = plasma levels during continuous intravenous infusion; format: in vivo, rat; settings: for concentration at 10 min / concentration at 20 min: male, Sprague Dawley, rat, plasma, intravenous; for concentration at 10 min: 10 min after start; for concentration at 20 min: 20 min after start
Procedure: (§1) Adult, male Sprague Dawley rats (240-280 g) were used for all studies. Rats were anesthetized with a mixture of ketamine:xylazine (85 mg/kg:5 mg/kg, ip). Catheters were placed in the left femoral artery and left femoral vein for the measurement of arterial pressure and the administration of test agents, respectively. In addition, a catheter was placed in the right femoral vein to administer a continuous infusion of ketamine:xylazine (45 mg/kg/hr:1.5 mg/kg/hr). A recording/stimulating catheter was then placed in the right jugular vein and advanced to the right atrium. Two electrodes were used to obtain bipolar atrial electrogram recording, and two were used for bipolar pacing of the atria/heart. The right carotid artery was then cannulated with a second recording/stimulating catheter, and the catheter was advance into the left ventricle. Two electrodes were used to obtain bipolar ventricular and His bundle electrograms, and two were used to pace the ventricle. Needle electrodes were placed subcutaneously in the right axillary and left inguinal areas to record lead II electrocardiogram. After equilibration and baseline readings, continuous infusion of test agent or vehicle was started and readings taken at 10 min and 20 min after start of infusion. Blood samples for plasma analysis were obtained from the femoral artery catheter at 10 and 20 min after the start of the infusion. Atrial effective (ARP), ventricular effective (VRP), and AV node effective (AVRP) refractory periods determined as follows: excitation threshold was determined for the atria and ventricles, then a conditioning train of stimuli (S1, 1 ms duration) at a cycle length of 150 ms was delivered at 1×-2× threshold followed by an extrastimulus (S2, 1 ms duration) at 2× threshold. The S1—S2 coupling interval was decreased by 5 ms, then 1 ms intervals to obtain refractory periods. ARP and VRP were defined as the shortest coupling interval that permitted propagation of an atrial or ventricular extrastimulus. AVRP was defined as the shortest coupling interval that permitted the propagation of the atria extrastimulus through the AV node to elicit ventricular depolarization. In addition, PR, AH (both a measure of AV nodal conduction) and HV (a measure of His-Purkinje conduction) intervals were measured during short (10-20 sec) trains of fixed S1—S1 interval pacing of 150 ms. QT interval was obtained during sinus rhythm. […] Am J Physiol. 1998;274:H747-51) were reported. Compounds were dissolved in either saline or N,N-dimethylformamide. Intravenous infusion of test agents or vehicles was normalized to body weight.

[2] = system: Sprague Dawley rats; assay: rat electrocardiogram/electrophysiology model, 20-min continuous intravenous infusion; format: in vivo; settings: for Percent change AH / Percent change ARP / Percent change AVRP / Percent change HR / Percent change HV / Percent change MAP / Percent change PR / Percent change QRS / Percent change QT / Percent change QTc / Percent change VRP: after a 20 min infusion, ± se
Procedure: as §1
In an extension of these studies to longer duration infusions, 3-[(dimethylamino)methyl]-6-methoxy-2-methyl-4-phenylisoquinolin-1(2H)-one hydrochloride and (2-isopropyl-5-methylcyclohexyl)(diphenyl)phosphine oxide were tested in a 20-min intravenous continuous infusion protocol. […] Plasma levels of 3-[(dimethylamino)methyl]-6-methoxy-2-methyl-4-phenylisoquinolin-1(2H)-one hydrochloride at 10 and 20 min after the start of a 0.1 mg/kg/min infusion were 3.4±0.2 μM and 2.8±0.3 μM, respectively.

[3] = system: Sprague Dawley rats; assay: rat electrocardiogram/electrophysiology model, 5-min intravenous infusion paradigm; format: in vivo; settings: readings immediately after the infusion, dose dependent
Procedure: as §1
Two infusion paradigms were tested with two structurally distinct Kv1.5 antagonists, 3-[(dimethylamino)methyl]-6-methoxy-2-methyl-4-phenylisoquinolin-1(2H)-one hydrochloride (described in WO 02/24655 A1) and (2-isopropyl-5-methylcyclohexyl)(diphenyl)phosphine oxide (described in U.S. Pat. No. 6,214,809 B1). In an initial shorter duration infusion paradigm, a 5-min intravenous infusion of compound or vehicle was administered with electrocardiogram/electrophysiology readings determined immediately after the infusion.

[4] = 20-min infusion, dose that produced a similar increase in VRP as the Kv1.5 antagonists
[5] = 0.1 mg/kg/min, 20-min after start of infusion
[6] = 0.1 mg/kg/min, 10 min after start of infusion
[7] = 0.2 mg/kg/min, DMF vehicle, 20-min infusion
[8] = 0.2 mg/kg/min, saline vehicle, 10-min post infusion
[9] = 0.2 mg/kg/min, saline vehicle, 20 min after start of infusion
[10] = 0.2 mg/kg/min, 10-min post infusion
[11] = 0.2 mg/kg/min, listed as (2-isopropyl-5-methylcyclohexyl)(diphenyl)phosphine oxide
[12] = dose that caused a similar decrease in blood pressure as 0.03 mg/kg/min amlodipine
[13] = doses that caused similar blood pressure lowering as higher infusion rates of amlodipine

With `CS(=O)(=O)Nc1ccc2c(c1)C(O)CC1(CCN(C3CCc4cc(C#N)ccc4C3)CC1)O2.Cl` [Ikr blocker, N-[1′-(6-cyano-1,2,3,4-tetrahydro-2(R)-naphthalenyl)-3,4-dihydro-4(R)-hydroxyspiro[2H-1-benzopyran-2,4′-piperidin]-6-YL]-,(+)-,monohydrochloride] the plasma concentrations [1, 4] was about 0.6 µM, the plasma concentration ([1]; infusion of lower doses) was 0.027 µM and the “Percent change AH” value ([2]; 0.0001 mg/kg/min) was 2 ± 1%. The “Percent change ARP” value ([2]; 0.0001 mg/kg/min) was 0 ± 2%, the “Percent change AVRP” value ([2]; 0.0001 mg/kg/min) was 1 ± 2% and the “Percent change HR” value ([2]; 0.0001 mg/kg/min) was −1 ± 5%. The “Percent change HV” value ([2]; 0.0001 mg/kg/min) was −1 ± 1%, the “Percent change MAP” value ([2]; 0.0001 mg/kg/min) was −7 ± 8% and the “Percent change PR” value ([2]; 0.0001 mg/kg/min) was 2 ± 2%. The “Percent change QRS” value ([2]; 0.0001 mg/kg/min) was 0 ± 1%, the “Percent change QT” value ([2]; 0.0001 mg/kg/min) was 1 ± 1% and the “Percent change QTc” value ([2]; 0.0001 mg/kg/min) was 0 ± 2%. The “Percent change VRP” value ([2]; 0.0001 mg/kg/min) was −2 ± 1%, the “Percent change AH” value ([2]; 0.001 mg/kg/min) was 9 ± 1% and the “Percent change ARP” value ([2]; 0.001 mg/kg/min) was 2 ± 4%. For the same compound, the “Percent change AVRP” value ([2]; 0.001 mg/kg/min) was 11 ± 1%, the “Percent change HR” value ([2]; 0.001 mg/kg/min) was 3 ± 4% and the “Percent change HV” value ([2]; 0.001 mg/kg/min) was −4 ± 3%. The “Percent change MAP” value ([2]; 0.001 mg/kg/min) was −1 ± 3%, the “Percent change PR” value ([2]; 0.001 mg/kg/min) was 8 ± 1% and the “Percent change QRS” value ([2]; 0.001 mg/kg/min) was 3 ± 1%. For the same compound, the “Percent change QT” value ([2]; 0.001 mg/kg/min) was −1 ± 1%, the “Percent change QTc” value ([2]; 0.001 mg/kg/min) was 1 ± 1% and the “Percent change VRP” value ([2]; 0.001 mg/kg/min) was 0 ± 1%. The “Percent change AH” value ([2]; 0.03 mg/kg/min) was 13 ± 4%, the “Percent change ARP” value ([2]; 0.03 mg/kg/min) was 4 ± 4% and the “Percent change AVRP” value ([2]; 0.03 mg/kg/min) was 21 ± 3%. For the same compound, the “Percent change HR” value ([2]; 0.03 mg/kg/min) was 22 ± 5%, the “Percent change HV” value ([2]; 0.03 mg/kg/min) was 4 ± 3% and the “Percent change MAP” value ([2]; 0.03 mg/kg/min) was 18 ± 5%. The “Percent change PR” value ([2]; 0.03 mg/kg/min) was 9 ± 4%, the “Percent change QRS” value ([2]; 0.03 mg/kg/min) was 0 ± 1% and the “Percent change QT” value ([2]; 0.03 mg/kg/min) was 11 ± 3%. For the same compound, the “Percent change QTc” value ([2]; 0.03 mg/kg/min) was 23 ± 5%, the “Percent change VRP” value ([2]; 0.03 mg/kg/min) was 7 ± 2% and the “increase in AH interval (delay in AV node conduction)” value [2, 4] was about 13%. For the same compound, the “increase in AVRP” value [2, 4] was 21%, the “increase in HR” value [2, 4] was 22% and the “increase in MAP” value [2, 4] was 18%. For the same compound, the ARP ([2]; infusion of lower doses) was “no change”, the AVRP ([2]; infusion of lower doses) was “significant changes” and the VRP ([2]; infusion of lower doses) was “no change”.
With `CCOC(=O)C1=C(COCCN)NC(C)=C(C(=O)OC)C1c1ccccc1Cl` (centres unmarked) [amlodipine] the “decrease in blood pressure” value ([2]; 0.03 mg/kg/min for 20 min) was −14%, the “decrease in blood pressure” value ([2]; higher infusion rates) was 30% and the “increase in AV nodal conduction” value ([2]; higher infusion rates) was 6%. For the same compound, the “increase in AV nodal refractoriness” value ([2]; higher infusion rates) was 7%.
With `COc1ccc2c(=O)n(C)c(CN(C)C)c(-c3ccccc3)c2c1.Cl` [compound 1, 3-[(dimethylamino)methyl]-6-methoxy-2-methyl-4-phenylisoquinolin-1(2H)-one hydrochloride] the ARP [3] was “increases”, the QT interval [3] was “increases” and the VRP [3] was “increases”. The “plasma levels, saline group versus DMF group” value ([1]; 0.2 mg/kg/min, dissolved in saline or DMF) was “similar”, the concentration at 10 min ([1]; 0.1 mg/kg/min infusion) was 3.4 ± 0.2 µM and the concentration at 20 min ([1]; 0.1 mg/kg/min infusion) was 2.8 ± 0.3 µM. The concentration at 10 min ([1]; 0.2 mg/kg/min infusion) was 6.3 ± 0.5 µM, the concentration at 20 min ([1]; 0.2 mg/kg/min infusion) was 5.5 ± 0.2 µM and the ARP [2, 5] was “no change”. For the same compound, the “increase in QT” value [2, 5] was 10%, the “increase in QTc” value [2, 5] was 16% and the “increase in VRP” value [2, 5] was 5%. The “increase in heart rate” value [2, 5] was 5%, the ARP [2, 6] was “no change” and the QT [2, 6] was “slight increase”. The QTc [2, 6] was “slight increase”, the VRP [2, 6] was “no change” and the “increase in ARP” value [2, 7] was 8%. The “increase in QT” value [2, 7] was 11%, the “increase in VRP” value [2, 7] was 13% and the “Percent change AH” value ([2]; 0.2 mg/kg/min) was 5 ± 1%. For the same compound, the “Percent change ARP” value ([2]; 0.2 mg/kg/min) was 5 ± 3%, the “Percent change AVRP” value ([2]; 0.2 mg/kg/min) was 4 ± 2% and the “Percent change HR” value ([2]; 0.2 mg/kg/min) was −1 ± 4%. For the same compound, the “Percent change HV” value ([2]; 0.2 mg/kg/min) was 0 ± 3%, the “Percent change MAP” value ([2]; 0.2 mg/kg/min) was 2 ± 2% and the “Percent change PR” value ([2]; 0.2 mg/kg/min) was 3 ± 1%. For the same compound, the “Percent change QRS” value ([2]; 0.2 mg/kg/min) was 0 ± 0%, the “Percent change QT” value ([2]; 0.2 mg/kg/min) was 12 ± 2% and the “Percent change QTc” value ([2]; 0.2 mg/kg/min) was 11 ± 2%. For the same compound, the “Percent change VRP” value ([2]; 0.2 mg/kg/min) was 13 ± 1%, the QT [2, 8] was “significant increases” and the VRP [2, 8] was “significant increases”. The “change in RR interval” value [2, 9] was −17%, the heart rate [2, 9] was “significant increases” and the “increase in ARP” value [2, 9] was 12%. The “increase in QT interval” value [2, 9] was 14%, the “increase in QTc” value [2, 9] was 24% and the “increase in VRP” value [2, 9] was 11%.
In the case of `CC1CCC(C(C)C)C(P(=O)(c2ccccc2)c2ccccc2)C1` (centres unmarked) [compound 2, (2-isopropyl-5-methylcyclohexyl)(diphenyl)phosphine oxide], the ARP [3] is reported as “increases”, the QT interval [3] is reported as “increases” and the VRP [3] is reported as “increases”. For the same compound, the ARP [2, 10] was “significant increases”, the QT [2, 10] was “significant increases” and the VRP [2, 10] was “significant increases”. For the same compound, the “Percent change AH” value ([2]; 0.2 mg/kg/min) was −1 ± 1%, the “Percent change ARP” value ([2]; 0.2 mg/kg/min) was 26 ± 4% and the “Percent change AVRP” value ([2]; 0.2 mg/kg/min) was −1 ± 1%. For the same compound, the “Percent change HR” value ([2]; 0.2 mg/kg/min) was 8 ± 6%, the “Percent change HV” value ([2]; 0.2 mg/kg/min) was −8 ± 3% and the “Percent change MAP” value ([2]; 0.2 mg/kg/min) was 4 ± 4%. The “Percent change PR” value ([2]; 0.2 mg/kg/min) was −3 ± 1%, the “Percent change QRS” value ([2]; 0.2 mg/kg/min) was −3 ± 4% and the “Percent change QT” value ([2]; 0.2 mg/kg/min) was 27 ± 7%. For the same compound, the “Percent change QTc” value ([2]; 0.2 mg/kg/min) was 33 ± 8%, the “Percent change VRP” value ([2]; 0.2 mg/kg/min) was 22 ± 5% and the “Percent change ARP” value [2, 11] was 24%. The “Percent change QT” value [2, 11] was 27%, the “Percent change QTc” value [2, 11] was 33% and the “Percent change VRP” value [2, 11] was 22%.
In the case of `COc1ccc([C@@H]2Sc3ccccc3N(CCN(C)C)C(=O)[C@@H]2OC(C)=O)cc1` [diltiazem], the “decrease in heart rate” value [2, 12] is reported as 12%, the “increase in AV nodal conduction” value [2, 12] is reported as 9% and the “increase in AV nodal refractoriness” value [2, 12] is reported as 10%. The blood pressure lowering [2, 13] was 23%, the “increase in AV nodal conduction” value [2, 13] was 15% and the “increase in AV nodal refractoriness” value [2, 13] was 19%.
In the case of `CCN(CC)CCNC(=O)c1ccc(N)cc1` [procainamide], the HV interval ([2]; infusion at increasing rates) is reported as “dose-dependent increases”, the QRS interval ([2]; infusion at increasing rates) is reported as “dose-dependent increases” and the blood pressure ([2]; infusion at increasing rates) is reported as “without having significant effects”. The heart rate ([2]; infusion at increasing rates) was “without having significant effects”.
